We go through 13 compounds from ChEMBL document CHEMBL4431369, “Synthesis and hypoglycemic activity of 9-O-(lipophilic group substituted) berberine derivatives” (Bioorg Med Chem Lett, 2016).

The first data set relates to HepG2. The data set can be described thus: Cytotoxicity against human HepG2 cells assessed as reduction in cell viability after 48 hrs by MTT assay. It counts as cell-based. The conditions noted are these: Homo sapiens, HepG2, 48 h.
In general, IC50 refers to the concentration that inhibits the measured activity by half. `COc1ccc2cc3[n+](cc2c1OC(=O)c1ccccc1)CCc1cc2c(cc1-3)OCO2.[Cl-]`: the IC50 was found to be 65.9 µg/mL.
Same read-out and setting: in the case of `COc1ccc2cc3[n+](cc2c1OC(=O)/C=C/c1ccccc1)CCc1cc2c(cc1-3)OCO2.[Cl-]` it was 52.3 µg/mL.
On to `COc1ccc2cc3[n+](cc2c1OC)CCc1cc2c(cc1-3)OCO2` [BERBERINE], for which the IC50 came to 46.9 µg/mL.
The same measure, in the same setting: in the case of `COc1ccc2cc3[n+](cc2c1OC(=O)c1ccncc1)CCc1cc2c(cc1-3)OCO2.[Cl-]` it was 82.5 µg/mL; in that of `COc1ccc2cc3[n+](cc2c1OC(=O)c1ccc([N+](=O)[O-])cc1)CCc1cc2c(cc1-3)OCO2.[Cl-]`, 37.9 µg/mL; in that of `COc1ccc2cc3[n+](cc2c1OC(=O)c1cccc([N+](=O)[O-])c1)CCc1cc2c(cc1-3)OCO2.[Cl-]`, 27.9 µg/mL.
For `COc1cc(/C=C/C(=O)Oc2c(OC)ccc3cc4[n+](cc23)CCc2cc3c(cc2-4)OCO3)ccc1OC(C)=O.[Cl-]`, the IC50 amounted to 73.5 µg/mL.
On the same count and under the same terms, for `COc1ccc2cc3[n+](cc2c1OC(=O)c1ccc(OC(C)=O)cc1)CCc1cc2c(cc1-3)OCO2.[Cl-]` the value was 42.9 µg/mL; for `COc1cc(/C=C/C(=O)Oc2c(OC)ccc3cc4[n+](cc23)CCc2cc3c(cc2-4)OCO3)ccc1OC(=O)c1cccnc1.[Cl-]`, 91.5 µg/mL.
The same measure, in the same setting: for `COc1ccc2cc3[n+](cc2c1OC(=O)c1cccnc1)CCc1cc2c(cc1-3)OCO2.[Cl-]` the value was 72.1 µg/mL; for `COc1ccc2cc3[n+](cc2c1OC(=O)c1ccccc1[N+](=O)[O-])CCc1cc2c(cc1-3)OCO2.[Cl-]`, 46.9 µg/mL.
Still for that read-out and setting: for `COc1ccc2cc3[n+](cc2c1OC(=O)c1ccccn1)CCc1cc2c(cc1-3)OCO2.[Cl-]` the value was 41.6 µg/mL.

The same data set, now with this note: human, hepg2, 48 h.
With `COc1ccc2cc3[n+](cc2c1OC(=O)c1ccccc1)CCc1cc2c(cc1-3)OCO2.[Cl-]`, the Activity entry is “Dose-dependent effect”.
Same read-out and setting: for `COc1ccc2cc3[n+](cc2c1OC(=O)/C=C/c1ccccc1)CCc1cc2c(cc1-3)OCO2.[Cl-]` the value was “Dose-dependent effect”; for `COc1ccc2cc3[n+](cc2c1OC)CCc1cc2c(cc1-3)OCO2` [BERBERINE], “Dose-dependent effect”; for `COc1ccc2cc3[n+](cc2c1OC(=O)c1ccncc1)CCc1cc2c(cc1-3)OCO2.[Cl-]`, “Dose-dependent effect”.
The same measure, in the same setting: in the case of `COc1ccc2cc3[n+](cc2c1OC(=O)c1ccc([N+](=O)[O-])cc1)CCc1cc2c(cc1-3)OCO2.[Cl-]` it was “Dose-dependent effect”.
The same measure, in the same setting: in the case of `COc1ccc2cc3[n+](cc2c1OC(=O)c1cccc([N+](=O)[O-])c1)CCc1cc2c(cc1-3)OCO2.[Cl-]` it was “Dose-dependent effect”; in that of `COc1cc(/C=C/C(=O)Oc2c(OC)ccc3cc4[n+](cc23)CCc2cc3c(cc2-4)OCO3)ccc1OC(C)=O.[Cl-]`, “Dose-dependent effect”.
On to `COc1ccc2cc3[n+](cc2c1OC(=O)c1ccc(OC(C)=O)cc1)CCc1cc2c(cc1-3)OCO2.[Cl-]`, for which the Activity result was “Dose-dependent effect”.
On to `COc1cc(/C=C/C(=O)Oc2c(OC)ccc3cc4[n+](cc23)CCc2cc3c(cc2-4)OCO3)ccc1OC(=O)c1cccnc1.[Cl-]`, for which the Activity entry is recorded as “Dose-dependent effect”.
Same read-out and setting: in the case of `COc1ccc2cc3[n+](cc2c1OC(=O)c1cccnc1)CCc1cc2c(cc1-3)OCO2.[Cl-]` it was “Dose-dependent effect”; in that of `COc1ccc2cc3[n+](cc2c1OC(=O)c1ccccc1[N+](=O)[O-])CCc1cc2c(cc1-3)OCO2.[Cl-]`, “Dose-dependent effect”; in that of `COc1ccc2cc3[n+](cc2c1OC(=O)c1ccccn1)CCc1cc2c(cc1-3)OCO2.[Cl-]`, “Dose-dependent effect”.

The subject of the next data set is HepG2. As to the kind of experiment: Hypoglycemic activity in human HepG2 cells assessed as increase in glucose consumption after 48 hrs.
Details: not given
It counts as functional, cell-based.
On to `COc1ccc2cc3[n+](cc2c1OC(=O)c1ccccc1)CCc1cc2c(cc1-3)OCO2.[Cl-]`, for which the Activity entry was “Dose-dependent effect”.
The same measure, in the same setting: for `COc1ccc2cc3[n+](cc2c1OC(=O)/C=C/c1ccccc1)CCc1cc2c(cc1-3)OCO2.[Cl-]` the value was “Dose-dependent effect”.
Take `COc1ccc2cc3[n+](cc2c1OC(=O)c1ccncc1)CCc1cc2c(cc1-3)OCO2.[Cl-]`: the Activity entry was “Dose-dependent effect”.
In the case of `COc1ccc2cc3[n+](cc2c1OC(=O)c1ccc([N+](=O)[O-])cc1)CCc1cc2c(cc1-3)OCO2.[Cl-]`, the Activity result is “Dose-dependent effect”.
`COc1ccc2cc3[n+](cc2c1OC(=O)c1cccc([N+](=O)[O-])c1)CCc1cc2c(cc1-3)OCO2.[Cl-]`: the Activity result is “Dose-dependent effect”.
The same measure, in the same setting: in the case of `COc1cc(/C=C/C(=O)Oc2c(OC)ccc3cc4[n+](cc23)CCc2cc3c(cc2-4)OCO3)ccc1OC(C)=O.[Cl-]` it was “Dose-dependent effect”.
Take `COc1ccc2cc3[n+](cc2c1OC(=O)c1ccc(OC(C)=O)cc1)CCc1cc2c(cc1-3)OCO2.[Cl-]`: the Activity entry is “Dose-dependent effect”.
The same measure, in the same setting: in the case of `COc1cc(/C=C/C(=O)Oc2c(OC)ccc3cc4[n+](cc23)CCc2cc3c(cc2-4)OCO3)ccc1OC(=O)c1cccnc1.[Cl-]` it was “Dose-dependent effect”.
For the compound `COc1ccc2cc3[n+](cc2c1OC(=O)c1cccnc1)CCc1cc2c(cc1-3)OCO2.[Cl-]`, the Activity result is “Dose-dependent effect”.
Same read-out and setting: in the case of `COc1ccc2cc3[n+](cc2c1OC(=O)c1ccccc1[N+](=O)[O-])CCc1cc2c(cc1-3)OCO2.[Cl-]` it was “Dose-dependent effect”; in that of `COc1ccc2cc3[n+](cc2c1OC(=O)c1ccccn1)CCc1cc2c(cc1-3)OCO2.[Cl-]`, “Dose-dependent effect”.

The next data set relates to HepG2. The data set can be described thus: Hypoglycemic activity in human HepG2 cells assessed as increase in glucose consumption at 5 ug/ml after 48 hrs relative to control. It counts as functional.
Details: not given
Turning to `COc1ccc2cc3[n+](cc2c1OC(=O)c1ccccc1)CCc1cc2c(cc1-3)OCO2.[Cl-]`, the Activity was determined as 40%.
Still for that read-out and setting: for `COc1ccc2cc3[n+](cc2c1OC(=O)/C=C/c1ccccc1)CCc1cc2c(cc1-3)OCO2.[Cl-]` the value was 94.5%; for `CN(C)C(=N)NC(=N)N` [METFORMIN], 20%.
On the same count and under the same terms, in the case of `COc1ccc2cc3[n+](cc2c1OC)CCc1cc2c(cc1-3)OCO2` [BERBERINE] it was 45.6%; in that of `COc1ccc2cc3[n+](cc2c1OC(=O)c1ccncc1)CCc1cc2c(cc1-3)OCO2.[Cl-]`, 30.2%; in that of `COc1ccc2cc3[n+](cc2c1OC(=O)c1ccc([N+](=O)[O-])cc1)CCc1cc2c(cc1-3)OCO2.[Cl-]`, 22.4%.
Same read-out and setting: for `COc1ccc2cc3[n+](cc2c1OC(=O)c1cccc([N+](=O)[O-])c1)CCc1cc2c(cc1-3)OCO2.[Cl-]` the value was 28%; for `COc1cc(/C=C/C(=O)Oc2c(OC)ccc3cc4[n+](cc23)CCc2cc3c(cc2-4)OCO3)ccc1OC(C)=O.[Cl-]`, 85.5%; for `COc1ccc2cc3[n+](cc2c1OC(=O)c1ccc(OC(C)=O)cc1)CCc1cc2c(cc1-3)OCO2.[Cl-]`, 31.7%.
In the case of `COc1cc(/C=C/C(=O)Oc2c(OC)ccc3cc4[n+](cc23)CCc2cc3c(cc2-4)OCO3)ccc1OC(=O)c1cccnc1.[Cl-]`, the Activity is recorded as 21.8%.
For `COc1ccc2cc3[n+](cc2c1OC(=O)c1cccnc1)CCc1cc2c(cc1-3)OCO2.[Cl-]`, the Activity is listed as 45.7%.
Regarding `COc1ccc2cc3[n+](cc2c1OC(=O)c1ccccc1[N+](=O)[O-])CCc1cc2c(cc1-3)OCO2.[Cl-]`, the Activity was determined as 33.8%.
As for `COc1ccc2cc3[n+](cc2c1OC(=O)c1ccccn1)CCc1cc2c(cc1-3)OCO2.[Cl-]`, the Activity is listed as 51.7%.

The subject of a further data set is HepG2. The data set can be described thus: Hypoglycemic activity in human HepG2 cells assessed as increase in glucose consumption at 5 ug/ml after 48 hrs relative to BBR. It counts as functional.
Details: not given
As for `COc1ccc2cc3[n+](cc2c1OC(=O)c1ccccc1)CCc1cc2c(cc1-3)OCO2.[Cl-]`, the Activity was -3.9%.
Regarding `COc1ccc2cc3[n+](cc2c1OC(=O)/C=C/c1ccccc1)CCc1cc2c(cc1-3)OCO2.[Cl-]`, the Activity was determined as 33.6%.
Still for that read-out and setting: for `CN(C)C(=N)NC(=N)N` [METFORMIN] the value was -17.6%; for `COc1ccc2cc3[n+](cc2c1OC(=O)c1ccncc1)CCc1cc2c(cc1-3)OCO2.[Cl-]`, -10.6%.
The same measure, in the same setting: in the case of `COc1ccc2cc3[n+](cc2c1OC(=O)c1ccc([N+](=O)[O-])cc1)CCc1cc2c(cc1-3)OCO2.[Cl-]` it was -15.9%; in that of `COc1ccc2cc3[n+](cc2c1OC(=O)c1cccc([N+](=O)[O-])c1)CCc1cc2c(cc1-3)OCO2.[Cl-]`, -12.1%.
On the same count and under the same terms, in the case of `COc1cc(/C=C/C(=O)Oc2c(OC)ccc3cc4[n+](cc23)CCc2cc3c(cc2-4)OCO3)ccc1OC(C)=O.[Cl-]` it was 27.4%; in that of `COc1ccc2cc3[n+](cc2c1OC(=O)c1ccc(OC(C)=O)cc1)CCc1cc2c(cc1-3)OCO2.[Cl-]`, -9.6%.
Consider `COc1cc(/C=C/C(=O)Oc2c(OC)ccc3cc4[n+](cc23)CCc2cc3c(cc2-4)OCO3)ccc1OC(=O)c1cccnc1.[Cl-]`, for which the Activity is recorded as -16.3%.
The same measure, in the same setting: for `COc1ccc2cc3[n+](cc2c1OC(=O)c1cccnc1)CCc1cc2c(cc1-3)OCO2.[Cl-]` the value was 0%; for `COc1ccc2cc3[n+](cc2c1OC(=O)c1ccccc1[N+](=O)[O-])CCc1cc2c(cc1-3)OCO2.[Cl-]`, -8.1%; for `COc1ccc2cc3[n+](cc2c1OC(=O)c1ccccn1)CCc1cc2c(cc1-3)OCO2.[Cl-]`, 4.2%.

System in another data set: not listed separately
The data set can be described thus: Ratio of compound IC50 to BBR IC50 for cytotoxicity against human HepG2 cells. It counts as cell-based. As to conditions: read-out: Ratio IC50.
For `COc1cc(/C=C/C(=O)Oc2c(OC)ccc3cc4[n+](cc23)CCc2cc3c(cc2-4)OCO3)ccc1OC(C)=O.[Cl-]`, the selectivity ratio is 1.57.
Same read-out and setting: for `COc1cc(/C=C/C(=O)Oc2c(OC)ccc3cc4[n+](cc23)CCc2cc3c(cc2-4)OCO3)ccc1OC(=O)c1cccnc1.[Cl-]` the value was 1.95.

Another data set concerns HepG2. As to the kind of experiment: Cytotoxicity against human HepG2 cells assessed as reduction in cell viability at 125 ug/ml after 48 hrs by MTT assay. It counts as cell-based. The conditions noted are these: hepg2, 48 h. (Formazan colour is commonly taken as a measure of viable cells.)
On to `COc1ccc2cc3[n+](cc2c1OC)CCc1cc2c(cc1-3)OCO2` [BERBERINE], for which the Activity entry is reported as “Toxic”.
Turning to `COc1cc(/C=C/C(=O)Oc2c(OC)ccc3cc4[n+](cc23)CCc2cc3c(cc2-4)OCO3)ccc1OC(=O)c1cccnc1.[Cl-]`, the Activity entry is “Non-Toxic”.
